This is an account of results in patent publication US20110129450A1, “METHOD OF PROMOTING NEUROGENESIS BY MODULATING SECRETASE ACTIVITIES” (priority 2008, published 2011).

Data set [1] concerns neural stem cells isolated from the SVZ of adult wild type mice. As to the kind of experiment: BrdU proliferation assay of neurosphere cultures treated with ADAM inhibitor. The format is cell-based. The conditions noted are these: treated 48 hours, compared to inactive analog GM6001NK; FIG. 3A.
Experimental: The role for α-secretase in regulating proliferation of NSCs was examined. Neurosphere cultures were established from neural stem cells isolated from the SVZ of adult wild type mice. […] Thereafter, cells were pulse-labeled with 5 μM BrdU for 24 hours before fixation in 4% paraformaldehyde (PFA). The fixed cells were incubated with anti-BrdU antibodies and then HRP-conjugated secondary antibodies, followed by incubation with the TMD peroxidase substrate (Pierce Protein Research Products, Thermo Scientific, Rockford, Ill.). Signals were detected using a plate reader at 450-595 nm.
Data set [2] concerns neurospheres derived from adult mice neural stem cells. As to the kind of experiment: Neurosphere diameter assay of singly dissociated adult NSCs plated for 8 days. The data set is classed as cell-based. The conditions noted are these: FIG. 4. An excerpt:
Both α- and β-secretases can cleave membrane-bound APP and release the secreted form of APP (sAPP). Proteolytic cleavage of APP by α-secretase releases one form of the secreted APP referred to as sαAPP, whereas cleavage of APP by β-secretase releases a C-terminally truncated sAPP referred to as sβAPP. The significance and difference in the functionality of these two forms of sAPP remains elusive. To distinguish the role of the α or β form of sAPP in promoting neural stem cell proliferation, neurospheres derived from adult mice neural stem cells were dissociated to single cells, plated for 8 days, treated with GM6001 or GM6001NK alone, treated with GM6001 and supplemented with conditioned media from neuroblastoma N2a cells expressing wild type APP, or treated with GM6001 and supplemented with conditioned media from 192 Swe N2a cells. Media conditioned by the neuroblastoma N2a was enriched in sαAPP as the wild type APP expressed in these cells was preferentially processed by α-secretase to produce sαAPP. The 192 Swe N2a conditioned medium was enriched in sβAPP as the 192 Swe N2a cells expressing the Swedish mutant form of APP that was preferentially cleaved by β-secretase. See Bogdanovic et al., 2001, Dement Geriatr. Congn. Discord. 12:364-70.

For data set [3], the system named is sAPP. As to the kind of experiment: Immunoblot of sAPP in conditioned media of treated NSC (22C11 antibody). Particulars: NSC cultures, versus GM6001NK; FIG. 3B. The format is cell-based, mice. An excerpt: APPWT CM represents proliferation results of GM6001-treated cells supplemented with APPWT-conditioned media. (B) Immunoblot analysis of sAPP levels in conditioned media from GM6001- and GM6001NK-treated NSC using the 22C11 antibody.
Results were obtained as percentages of BrdU positive cells in GM6001-treated culture over BrdU positive cells in the control culture treated with DMSO (FIG. 3A). […] To examine the possibility that reduced proliferation was a result of reduced levels of sAPP, GM6001-treated cells were supplemented with conditioned media of neurospheres derived from APPWT mice, in which the α-secretase cleavage product sαAPP was present. […] The secretion levels of sAPP were also examined by immunoblot analysis in the conditioned media of GM6001- or GM6001NK-treated cells.
A general note: A western blot detects proteins with antibodies after separation by electrophoresis.

Data set [4] relates to PS1. Description: Immunoblot of PS1 expression in N2a cells transduced with lentiviral vector. The data set is classed as cell-based, murine. Particulars: N2a cells five days following transduction, versus GFP only or irrelevant siRNA; FIG. 6A. From the text:
PS1 siRNA lentiviruses were verified by immunoblot analysis for the reduction of PS1 protein expression in N2a cells transduced with the lentiviral vector. N2a cells were transduced with the purified shRNA vector preparation followed by immunoblot analysis using anti-PS1 polyclonal antibody (Lazarov et al., 2005, J. Neurosci. 25: 2386-95.). Presenilins undergo cleavage in an alpha helical region of one of the cytoplasmic loops to produce a larger N-terminal (“PS1 NTF”) and a smaller C-terminal fragment which together form part of the functional protein. […] PS1 siRNA 4-11 (lane 1) refers to a different PS1 siRNA construct having the siRNA sequence of 5′ GGACCAACTTGCATTCCAT 3′ (SEQ ID NO:18) under the U6 promoter. The samples in lanes 6 and 7 were brain extracts of transgenic mice harboring PS1HWT (wild type human PS1; lane 6) and PS1ΔE9 (human PS1 with exon 9 deleted; lane 7), both of which served as positive controls for PS1 detection.

The subject of data set [5] is neural stem cells. As to the kind of experiment: Neural stem cell differentiation assay on poly-L-ornithine/laminin. The format is cell-based, mice. The procedure:
The effects of γ-secretase inhibitor L-685,458 on neural stem cell differentiation was analyzed. Neural stem cells were allowed to differentiate when cultured on glass coverslips coated with 10 μg/mL poly-L-ornithine (Sigma, St. Louis, Mo.) and 5-10 μg/mL laminin (Sigma) in media with 5% fetal bovine serum without EGF and FGF.
γ-secretase inhibitor L-685,458-induced differentiation was further analyzed by immunostaining using antibodies to the astrocyte marker GFAP, and the early neural marker nestin. […] Scale bar=[…] (FIG. 8E, representative GFAP staining is marked with single arrows).
The length of the processes developed from the middle of the soma to the axon tip of GFAP positive cells after two days of L-685,458 treatment was analyzed and the results are shown in FIG. 8G. Twenty four hours after culturing whole neurospheres on laminin, vehicle-treated cultures remained mostly as neurospheres with slight cell differentiation (FIG. 8F, top panels).

For data set [6], the system named is neurospheres from the SVZ of adult mice. Description: BrdU proliferation assay of neurospheres (γ-secretase inhibitor or lentiviral siRNA). The data set is classed as cell-based. Particulars: 1 μM for 24 hours; FIG. 8A. The procedure:
To further establish that reduced expression of PS1 decreased neural stem cell proliferation and induced neural stem cell differentiation, neurospheres established as described above from the SVZ of adult mice were subject to a proliferation assay following the treatment with the γ-secretase inhibitor L-685,458 (1 μM for 24 hours) (Sigma, St. Louis, Mo.). As a comparison, neurospheres were transduced with lentiviral vectors expressing either IR siRNA or PS1 siRNA. The proliferation assay was performed as follows: lentivirally-transduced neurospheres or γ-secretase inhibitor-treated neurospheres were singly dissociated and cultured (10,000 cells/well) with BrdU for 48 hours. BrdU-labeled cells were fixed in 4% PFA and immunolabeled with anti-BrdU antibodies followed by HRP-conjugated secondary antibodies. Thereafter, the cells were incubated with the TMD peroxidase substrate and read on a plate reader at 450-595 nm. […] Results were presented as a percentage of DMSO-treated NSCs.

“Also recorded” adds a separate entry of the source.

As to `CNC(=O)[C@H](Cc1c[nH]c2ccccc12)NC(=O)[C@@H](CC(=O)NO)CC(C)C` [GM6001], the “BrdU immunoreactivity (BrdU positive cells relative to DMSO control)” value in data set [1] is given as “Reduced BrdU immunoreactivity”. In data set [2], the “average diameter of neurospheres” value is listed as “reduced the average diameter of neurospheres”. Moreover, the “levels of secreted sAPP in conditioned media” value in data set [3] is “reduced”.

Turning to “5′ GGACCAACTTGCATTCCAT 3′ (expressed or natural sequence) [PS1 siRNA 4-11]”, the PS1 expression result in data set [4] was “reduced”.

Turning to `CC(C)C[C@H](NC(=O)[C@H](Cc1ccccc1)C[C@@H](O)[C@H](Cc1ccccc1)NC(=O)OC(C)(C)C)C(=O)N[C@@H](Cc1ccccc1)C(N)=O` [L-685,458], in data set [5] (FIG. 8E), the GFAP immunostaining entry was “Positive staining of GFAP”. In data set [5] (differentiation medium, compared to DMSO, FIGS. 8B-8F), the “neural progenitor cell differentiation” value is “induced neural progenitor cell differentiation”. Also, the “immunostaining for β-tubulin and GFAP” value in data set [5] (neurospheres on laminin, FIG. 8F) is “increased immunostaining for both β-tubulin and GFAP”. The “differentiation of whole neurospheres cultured on laminin” value in data set [5] (twenty four hours on laminin, FIG. 8F) was “extensive differentiation”. Further, in data set [5] (two-day treatment, compared to control, FIG. 8C), the “number of differentiated cells” value is “increased number of differentiated cells”. Further, the “number of GFAP+Nestin+DCX+ cells” value in data set [5] (two-day treatment, compared to control, FIG. 8H) is “dramatically decreased; also recorded: decrease”. For the same compound, the “number of neurospheres formed from singly-dissociated neurosphere cells” value in data set [5] (two-day treatment, compared with control, FIG. 8D) is recorded as “reduced number of neurospheres”. Also, the “BrdU+ immunoreactivity (percentage of DMSO-treated NSCs)” value in data set [6] is “Reduced BrdU+ immunoreactivity; also recorded: reduced neural stem cell proliferation”.
